Data published in PubChem BioAssay AID248 (DTP/NCI, 2004).
Toxic doses and inconclusive results are not listed. Cut-off read from the data, not from the text of the source: active = T/C of 150% or more; inactive = T/C below 125%.

System: L1210 leukemia ip in BDF1 mice, survival T/C
Assay: NCI In Vivo Anticancer Drug Screen. Data for tumor model L1210 Leukemia (intraperitoneal) in B6D2F1 (BDF1) mice
Conditions: endpoint: mean survival time, higher = longer survival
Procedure, shortened: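 Tumor cells were implanted, animals were treated, and survival was followed. The result divides the treated measurement by the vehicle-control measurement.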

[1] = dose: 100.0 mg/kg/injection, schedule: Q01DX001 (ip), vehicle: carboxymethylcellulose (CMC)
[2] = dose: 200.0 mg/kg/injection, schedule: Q01DX001 (ip), vehicle: carboxymethylcellulose (CMC)
[3] = dose: 400.0 mg/kg/injection, schedule: Q01DX001 (ip), vehicle: carboxymethylcellulose (CMC)
[4] = dose: 100.0 mg/kg/injection, schedule: Q04DX003 (ip), vehicle: saline
[5] = dose: 200.0 mg/kg/injection, schedule: Q04DX003 (ip), vehicle: saline
[6] = dose: 400.0 mg/kg/injection, schedule: Q04DX003 (ip), vehicle: saline
[7] = dose: 100.0 mg/kg/injection, schedule: Q01DX009 (ip), vehicle: saline with Tween-80
[8] = dose: 200.0 mg/kg/injection, schedule: Q01DX009 (ip), vehicle: saline with Tween-80
[9] = dose: 100.0 mg/kg/injection, schedule: Q01DX001 (ip), vehicle: saline
[10] = dose: 75.0 mg/kg/injection, schedule: Q01DX001 (ip), vehicle: other
[11] = dose: 150.0 mg/kg/injection, schedule: Q01DX001 (ip), vehicle: other
[12] = dose: 50.0 mg/kg/injection, schedule: Q01DX001 (ip), vehicle: saline
[13] = dose: 50.0 mg/kg/injection, schedule: Q01DX009 (ip), vehicle: saline
[14] = dose: 200.0 mg/kg/injection, schedule: Q01DX001 (ip), vehicle: saline
[15] = dose: 400.0 mg/kg/injection, schedule: Q01DX001 (ip), vehicle: saline

Measured: T/C

CC(=O)OCc1c(O)c2c(c(O)c1COC(C)=O)C(=O)C=CC2=O
inactive: dose: 2.0 mg/kg/injection, schedule: Q01DX009 (ip), vehicle: saline 96 % of control | dose: 4.0 mg/kg/injection, schedule: Q01DX009 (ip), vehicle: saline 96 % of control | dose: 8.0 mg/kg/injection, schedule: Q01DX009 (ip), vehicle: saline 88 % of control | dose: 16.0 mg/kg/injection, schedule: Q01DX009 (ip), vehicle: saline 91 % of control

CC/C=C(\C)C1(C(C)C)C(=O)NC(=O)NC1=O
inactive: dose: 75.0 mg/kg/injection, schedule: Q01DX001 (ip), vehicle: carboxymethylcellulose (CMC) 105 % of control

CCCCCCOC(=O)C(N)Cc1ccc(OC)c(N(CCCl)CCCl)c1 (configuration not stated)
inactive: dose: 12.5 mg/kg/injection, schedule: Q01DX001 (ip), vehicle: saline 93 % of control | dose: 15.0 mg/kg/injection, schedule: Q01DX001 (ip), vehicle: saline 94 % of control

CC1CN1P(=S)(N1CCCCC1)N1CC1C (configuration not stated)
inactive: dose: 50.0 mg/kg/injection, schedule: Q01DX001 (ip), vehicle: carboxymethylcellulose (CMC) 102 % of control | [1] 91 % of control | [2] 91 % of control | [3] 105 % of control | dose: 600.0 mg/kg/injection, schedule: Q01DX001 (ip), vehicle: carboxymethylcellulose (CMC) 103 % of control | dose: 800.0 mg/kg/injection, schedule: Q01DX001 (ip), vehicle: carboxymethylcellulose (CMC) 101 % of control

CCCCOC(=O)c1ccc(NC(=O)CCC(C)Cl)cc1 (configuration not stated)
inactive: [4] 94 % of control | [5] 90 % of control | [6] 92 % of control

CCOC(=O)Oc1c(Cl)cc(S(=O)(=O)F)cc1Cl
inactive: dose: 100.0 mg/kg/injection, schedule: Q04DX003 (ip), vehicle: carboxymethylcellulose (CMC) 101 % of control | dose: 200.0 mg/kg/injection, schedule: Q04DX003 (ip), vehicle: carboxymethylcellulose (CMC) 108 % of control | dose: 400.0 mg/kg/injection, schedule: Q04DX003 (ip), vehicle: carboxymethylcellulose (CMC) 90 % of control

CC1CC(=O)c2c(O)ccc(O)c21 (configuration not stated)
inactive: [1] 96 % of control | [2] 89 % of control | [3] 100 % of control

CCSc1ncc2cnccn12
inactive: dose: 25.0 mg/kg/injection, schedule: Q01DX009 (ip), vehicle: water 91 % of control | dose: 50.0 mg/kg/injection, schedule: Q01DX009 (ip), vehicle: water 100 % of control | dose: 100.0 mg/kg/injection, schedule: Q04DX003 (ip), vehicle: water 91 % of control

CCOC(=O)C1OC12CCC(C(C)(C)C)CC2 (configuration not stated)
inactive: [7] 95 % of control | dose: 100.0 mg/kg/injection, schedule: Q04DX002 (ip), vehicle: saline with Tween-80 100 % of control | [8] 91 % of control | dose: 200.0 mg/kg/injection, schedule: Q04DX002 (ip), vehicle: saline with Tween-80 100 % of control | dose: 400.0 mg/kg/injection, schedule: Q01DX009 (ip), vehicle: saline with Tween-80 88 % of control | dose: 400.0 mg/kg/injection, schedule: Q04DX002 (ip), vehicle: saline with Tween-80 93 % of control

CN(C)/N=N/c1[nH]ncc1C(N)=O
active: dose: 108.0 mg/kg/injection, schedule: Q01DX009 (ip), vehicle: saline 176 % of control | dose: 600.0 mg/kg/injection, schedule: Q01DX001 (ip), vehicle: saline 156 % of control
inactive: [9] 113 % of control | dose: 300.0 mg/kg/injection, schedule: Q01DX009 (ip), vehicle: saline 110 % of control

CCCCCCCCCCCCCCCCCCc1cc(C)ccc1C
inactive: dose: 100.0 mg/kg/injection, schedule: Q01DX001 (ip), vehicle: other 107 % of control | dose: 200.0 mg/kg/injection, schedule: Q01DX001 (ip), vehicle: other 90 % of control | dose: 400.0 mg/kg/injection, schedule: Q01DX001 (ip), vehicle: other 104 % of control

O=C(Cl)c1ccc([N+](=O)[O-])cc1
inactive: dose: 100.0 mg/kg/injection, schedule: Q04DX003 (ip), vehicle: saline with Tween-80 102 % of control | dose: 200.0 mg/kg/injection, schedule: Q04DX003 (ip), vehicle: saline with Tween-80 101 % of control

CC(C)N1CCC(=O)NC1=O
inactive: dose: 100.0 mg/kg/injection, schedule: Q04DX003 (ip), vehicle: Klucel (hydroxypropylcellulose) (HPC) 94 % of control | [4] 94 % of control | dose: 200.0 mg/kg/injection, schedule: Q04DX003 (ip), vehicle: Klucel (hydroxypropylcellulose) (HPC) 94 % of control | [5] 92 % of control | dose: 400.0 mg/kg/injection, schedule: Q04DX003 (ip), vehicle: Klucel (hydroxypropylcellulose) (HPC) 91 % of control | [6] 103 % of control

COc1cc(/C=N\NC(=O)CNC(=O)Nc2cccc(Cl)c2)ccc1O
inactive: [7] 90 % of control | [8] 87 % of control

Nc1ccc(N)c(C(=O)O)c1
inactive: [10] 98 % of control | [11] 93 % of control

O=c1[nH]c2ncccc2c(=O)n1OS(=O)(=O)c1ccccc1
inactive: [12] 102 % of control | [13] 98 % of control | [9] 96 % of control | dose: 100.0 mg/kg/injection, schedule: Q01DX009 (ip), vehicle: saline 106 % of control | [14] 93 % of control | dose: 200.0 mg/kg/injection, schedule: Q01DX009 (ip), vehicle: saline 98 % of control | [15] 96 % of control

N#CC12CCC(c3ccccc31)c1ccccc12
inactive: dose: 100.0 mg/kg/injection, schedule: Q04DX002 (ip), vehicle: gum acacia 99 % of control | dose: 200.0 mg/kg/injection, schedule: Q04DX002 (ip), vehicle: gum acacia 101 % of control | dose: 400.0 mg/kg/injection, schedule: Q04DX002 (ip), vehicle: gum acacia 92 % of control

COc1ccc(CCNCC(O)CSc2cccc(C)c2)cc1OC (configuration not stated)
inactive: dose: 75.0 mg/kg/injection, schedule: Q01DX001 (ip), vehicle: saline 101 % of control | dose: 150.0 mg/kg/injection, schedule: Q01DX001 (ip), vehicle: saline 95 % of control

COc1cc2c(cc1OC)C(C)=NCC2
inactive: dose: 12.0 mg/kg/injection, schedule: Q01DX009 (ip), vehicle: saline 103 % of control | dose: 25.0 mg/kg/injection, schedule: Q01DX009 (ip), vehicle: saline 94 % of control | dose: 25.0 mg/kg/injection, schedule: Q04DX003 (ip), vehicle: saline 105 % of control | [12] 114 % of control | [13] 110 % of control | dose: 50.0 mg/kg/injection, schedule: Q04DX003 (ip), vehicle: saline 105 % of control | [9] 104 % of control | [4] 102 % of control

CCCCNC(=O)NC1CC(OC2CC(O)(C(C)=O)Cc3c(O)c4c(c(O)c32)C(=O)c2c(OC)cccc2C4=O)OC(C)C1O (configuration not stated)
inactive: dose: 1.0 mg/kg/injection, schedule: Q04DX003 (ip), vehicle: water 104 % of control | dose: 2.0 mg/kg/injection, schedule: Q04DX003 (ip), vehicle: water 97 % of control | dose: 4.0 mg/kg/injection, schedule: Q04DX003 (ip), vehicle: water 98 % of control | dose: 8.0 mg/kg/injection, schedule: Q04DX003 (ip), vehicle: water 98 % of control | dose: 16.0 mg/kg/injection, schedule: Q04DX003 (ip), vehicle: water 94 % of control | dose: 32.0 mg/kg/injection, schedule: Q04DX003 (ip), vehicle: water 101 % of control

O=C1OC(c2cccc3c(F)cccc23)c2ccccc21 (configuration not stated)
inactive: dose: 100.0 mg/kg/injection, schedule: Q01DX009 (ip), vehicle: Klucel (hydroxypropylcellulose) (HPC) 96 % of control | dose: 200.0 mg/kg/injection, schedule: Q01DX009 (ip), vehicle: Klucel (hydroxypropylcellulose) (HPC) 95 % of control | dose: 400.0 mg/kg/injection, schedule: Q01DX009 (ip), vehicle: Klucel (hydroxypropylcellulose) (HPC) 93 % of control

NCCSc1ccc(Br)cc1
inactive: [10] 100 % of control | [11] 102 % of control

O=C(NCCCl)NC1CCCC(O)C1 (configuration not stated)
inactive: [9] 101 % of control | [14] 101 % of control | [15] 93 % of control

Cn1cc(C(N)=O)ccc1=N
inactive: [4] 113 % of control | [5] 98 % of control | [6] 106 % of control
